Literature values in patent US20140314667A1, “METHODS OF TREATING EPIDERMAL GROWTH FACTOR DELETION MUTANT VIII RELATED DISORDERS” (AMGEN INC., priority 2011, published 2014).

Experiments:
[1] = system: P388 lymphocytic leukemia system; conditions: Kupchan 1974; cited from earlier work
[2] = U.S. Pat. No. 3,896,111; cited from earlier work
[3] = system: human acute lymphoblastic leukemia line CEM; conditions: in vitro, Wolpert-DeFillippes et al.; cited from earlier work
[4] = system: P388, L1210, and LY5178 murine leukemic cell suspensions; conditions: in vitro; cited from earlier work
L1210 cells = conditions: Sieber et al.; untreated control mitotic index 3.2 to 5.8%; cited from earlier work
[5] = system: L1210 mouse leukemia system, the human Lewis lung carcinoma system and the human B-16 melanocarcinoma system; conditions: Kupchan 1974; cited from earlier work

COc1cc2cc(c1Cl)N(C)C(=O)C[C@H](OC(=O)[C@H](C)N(C)C(C)=O)[C@]1(C)O[C@H]1[C@H](C)[C@@H]1C[C@@](O)(NC(=O)O1)[C@H](OC)/C=C/C=C(\C)C2 [Maytansine]
dosage range over which tumor growth was inhibited [1]: 50- to 100 fold
more cytotoxic than conventional cancer chemotherapeutic agents like methotrexate, daunorubicin, and vincristine [2]: 100 to 1000 fold
inhibitory concentration [3]: ≥ 10^−7 mg/ml
inhibitory doses [4]: 10^−3 to 10^−1 µg/µl
cells accumulating in mitosis (L1210 cells): 67%
inhibitory activity [5]: significant inhibitory activity
